The values that follow come from patent US12404295B2, “(Hetero)aryl-methyl-thio-beta-D-galactopyranoside derivatives” (Idorsia Pharmaceuticals Ltd, priority 2019, dated 2025).

One assay addresses human Gal-1 (hGal-1) (Homo sapiens (Human), UniProt P09382). The experiment in a line: competitive binding assay: biotinylated hGal-1 binding to microplate-adsorbed asialofetuin (ASF). Particulars: Table 15; read-out: IC50 (Galectin-1 inhibition). A digest of the protocol:
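Spectrophotometric competition readout: after compound and biotinylated hGal-1 (300-1000 ng/mL) sit 3 h at 4° C on adsorbed asialofetuin, streptavidin-peroxidase (1 h, 4° C) and ABTS reveal residual binding. Reported IC50 values are means of repeat runs.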

The target in another assay is human Gal-3 (hGal-3) (Homo sapiens (Human), UniProt P17931). Put plainly: competitive binding assay: biotinylated hGal-3 binding to microplate-adsorbed asialofetuin (ASF). A digest of the protocol: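 3 h, 4 °C binding step; cold buffer wash; streptavidin-HRP 80 ng/mL, 1 h, 4 °C; ABTS colorimetric read-out. Compounds diluted serially in DMSO. IC50 reported as mean of repeat runs.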

Setting [1] is: Gal-3 inhibition, binding of biotinylated hGal-3 to ASF, mean values, read-out: IC50.
Setting [2] is: Table 5, read-out: IC50 (Gal-3 inhibition).
The mark [3] stands for this setting: Table 10, 2-OMe-Gal inhibitors, read-out: IC50 (Gal-3 inhibition).

pIC50: −log10 of the molar value. Read-outs that look alike come from different tables or passages of the source.

Sequence of human Gal-1 (hGal-1) (P09382 whole entry): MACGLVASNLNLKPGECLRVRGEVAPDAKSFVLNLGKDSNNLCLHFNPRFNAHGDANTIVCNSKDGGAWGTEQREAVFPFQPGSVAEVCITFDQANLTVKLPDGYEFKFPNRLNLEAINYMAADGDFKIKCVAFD
Sequence of human Gal-3 (hGal-3) (P17931 whole entry): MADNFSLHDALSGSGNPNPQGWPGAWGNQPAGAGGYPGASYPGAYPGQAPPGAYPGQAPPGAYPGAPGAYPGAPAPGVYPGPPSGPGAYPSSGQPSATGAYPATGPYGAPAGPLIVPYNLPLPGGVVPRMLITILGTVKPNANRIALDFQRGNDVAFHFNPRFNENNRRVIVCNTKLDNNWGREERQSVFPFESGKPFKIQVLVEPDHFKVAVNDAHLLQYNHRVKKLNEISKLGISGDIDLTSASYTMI

For `CC(C)(O)[C@@H](S[C@@H]1O[C@H](CO)[C@H](O)[C@H](n2cc(-c3cc(F)c(F)c(F)c3)nn2)[C@H]1O)c1cccc2ccccc12` [Example 2.31.115S., (2S,3R,4S,5R,6R)-2-(((S)-2-Hydroxy-2-methyl-1-(naphthalen-1-yl)propyl)thio)-6-(hydroxymethyl)-4-(4-(3,4,5-trifluorophenyl)-1H-1,2,3-triazol-1-yl)tetrahydro-2H-pyran-3,5-diol], the figures for the pIC50 at human Gal-1 (hGal-1) and on human Gal-3 (hGal-3) (setting [1]) were 4.32 and 4.99, respectively.

As for `OC[C@H]1O[C@@H](S[C@H](c2ccccc2C(F)(F)F)C2(O)CC(F)(F)C2)[C@H](O)[C@@H](n2cc(-c3cc(F)c(F)c(F)c3)nn2)[C@H]1O` [Example 2.33.112R., (2S,3R,4S,5R,6R)-2-(((R)-(3,3-Difluoro-1-hydroxycyclobutyl)(2-(trifluoromethyl)phenyl)methyl)thio)-6-(hydroxymethyl)-4-(4-(3,4,5-trifluorophenyl)-1H-1,2,3-triazol-1-yl)tetrahydro-2H-pyran-3,5-diol], the results for the pIC50 at human Gal-1 (hGal-1) and at human Gal-3 (hGal-3) (setting [2]) were 6.17 and 6.85, respectively.

In the case of `CO[C@@H]1[C@@H](n2cc(-c3cc(F)c(F)c(F)c3)nn2)[C@@H](O)[C@@H](CO)O[C@H]1S[C@H](c1ccccc1C(C)C)C1(O)CCC(F)(F)CC1` [Example 2.44.105R.I., (2R,3R,4S,5R,6S)-6-(((R)-(4,4-Difluoro-1-hydroxycyclohexyl)(2-isopropylphenyl)methyl)thio)-2-(hydroxymethyl)-5-methoxy-4-(4-(3,4,5-trifluorophenyl)-1H-1,2,3-triazol-1-yl)tetrahydro-2H-pyran-3-ol], the figures for the pIC50 at human Gal-1 (hGal-1) and on human Gal-3 (hGal-3) (setting [3]) were 6.82 and 6.49, respectively.

On to `OC[C@H]1O[C@@H](S[C@H](c2ccccc2C(F)(F)F)C2(O)CCOCC2)[C@H](O)[C@@H](n2cc(-c3cc(F)c(F)c(F)c3)nn2)[C@H]1O` [Example 2.41.112R., (2R,3R,4S,5R,6S)-2-(Hydroxymethyl)-6-(((R)-(4-hydroxytetrahydro-2H-pyran-4-yl)(2-(trifluoromethyl)phenyl)methyl)thio)-4-(4-(3,4,5-trifluorophenyl)-1H-1,2,3-triazol-1-yl)tetrahydro-2H-pyran-3,5-diol], for which the pIC50 – broadly, −log10 of the IC50, conventionally taken in molar units – was 6.05 on human Gal-1 (hGal-1) and 7.10 on human Gal-3 (hGal-3) (setting [2]).

As to `Cc1ccnnc1[C@@H](S[C@@H]1O[C@H](CO)[C@H](O)[C@H](n2cc(-c3cc(F)c(F)c(F)c3)nn2)[C@H]1O)C1(O)CCC(F)(F)CC1` [Example 2.44.135R., (2S,3R,4S,5R,6R)-2-(((R)-(4,4-Difluoro-1-hydroxycyclohexyl)(4-methylpyridazin-3-yl)methyl)thio)-6-(hydroxymethyl)-4-(4-(3,4,5-trifluorophenyl)-1H-1,2,3-triazol-1-yl)tetrahydro-2H-pyran-3,5-diol], the pIC50 was 6.66 at human Gal-1 (hGal-1) and 7.40 at human Gal-3 (hGal-3) (setting [1]).

Regarding `CO[C@@H]1[C@@H](n2cc(-c3cc(F)c(F)c(F)c3)nn2)[C@@H](O)[C@@H](CO)O[C@H]1SC(c1ccccc1C(F)(F)F)C1(O)CCN(C(C)=O)CC1` (stereo partly drawn) [Example 2.48.112.I., 1-(4-Hydroxy-4-((((2S,3R,4S,5R,6R)-5-hydroxy-6-(hydroxymethyl)-3-methoxy-4-(4-(3,4,5-trifluorophenyl)-1H-1,2,3-triazol-1-yl)tetrahydro-2H-pyran-2-yl)thio)(2-(trifluoromethyl)phenyl)methyl)piperidin-1-yl)ethan-1-one], the negative-log IC50 (pIC50) is 6.40 at human Gal-1 (hGal-1) and 6.72 at human Gal-3 (hGal-3) (setting [1]).

With `Cc1cccnc1[C@H](S[C@@H]1O[C@H](CO)[C@H](O)[C@H](n2cc(-c3cc(F)c(F)c(F)c3)nn2)[C@H]1O)C1(O)CCS(=O)(=O)CC1` [Example 2.66.126S., 4-((S)-(((2S,3R,4S,5R,6R)-3,5-Dihydroxy-6-(hydroxymethyl)-4-(4-(3,4,5-trifluorophenyl)-1H-1,2,3-triazol-1-yl)tetrahydro-2H-pyran-2-yl)thio)(3-methylpyridin-2-yl)methyl)-4-hydroxytetrahydro-2H-thiopyran 1,1-dioxide], the results for the negative logarithm of the IC50 (pIC50) on human Gal-1 (hGal-1) and at human Gal-3 (hGal-3) (setting [1]) were 4.78 and 5.70, respectively.

`Cc1nc(C)c([C@H](S[C@@H]2O[C@H](CO)[C@H](O)[C@H](n3cc(-c4cc(F)c(F)c(F)c4)nn3)[C@H]2O)C2(O)CCN(C)CC2)nc1C` [Example 2.40.119S., (2S,3R,4S,5R,6R)-2-(((S)-(4-Hydroxy-1-methylpiperidin-4-yl)(3,5,6-trimethylpyrazin-2-yl)methyl)thio)-6-(hydroxymethyl)-4-(4-(3,4,5-trifluorophenyl)-1H-1,2,3-triazol-1-yl)tetrahydro-2H-pyran-3,5-diol]: the negative-log IC50 (pIC50) at human Gal-1 (hGal-1) is 4.97; at human Gal-3 (hGal-3) (setting [1]), 5.52.

Take `Cc1conc1[C@@H](S[C@@H]1O[C@H](CO)[C@H](O)[C@H](n2cc(-c3cc(F)c(F)c(F)c3)nn2)[C@H]1O)C1(O)CCCCC1` [Example 2.39.120R., (2S,3R,4S,5R,6R)-2-(((R)-(1-Hydroxycyclohexyl)(4-methylisoxazol-3-yl)methyl)thio)-6-(hydroxymethyl)-4-(4-(3,4,5-trifluorophenyl)-1H-1,2,3-triazol-1-yl)tetrahydro-2H-pyran-3,5-diol]: the negative-log IC50 (pIC50) on human Gal-1 (hGal-1) is 6.21; on human Gal-3 (hGal-3) (setting [2]) it was 6.70.

For `CCCc1onc(C(S[C@@H]2O[C@H](CO)[C@H](O)[C@H](n3cc(-c4cc(F)c(F)c(F)c4)nn3)[C@H]2OC)C2(O)CCC(F)(F)CC2)c1CC` (stereo partly drawn) [Example 2.44.146.I., (2R,3R,4S,5R,6S)-6-(((4,4-Difluoro-1-hydroxycyclohexyl)(4-ethyl-5-propylisoxazol-3-yl)methyl)thio)-2-(hydroxymethyl)-5-methoxy-4-(4-(3,4,5-trifluorophenyl)-1H-1,2,3-triazol-1-yl)tetrahydro-2H-pyran-3-ol], the negative-log IC50 (pIC50) on human Gal-1 (hGal-1) is 6.77; at human Gal-3 (hGal-3) (Table 11, read-out: IC50 (Gal-3 inhibition)), 6.92.

For `Cc1ccccc1[C@H](S[C@@H]1O[C@H](CO)[C@H](O)[C@H](n2cc(-c3cc(F)c(F)c(F)c3)nn2)[C@H]1O)C1(O)CCOCC1` [Example 2.41.102S.], the negative logarithm of the IC50 (pIC50) at human Gal-1 (hGal-1) is 4.18; at human Gal-3 (hGal-3) (setting [2]), 5.13.

For `CO[C@@H]1[C@@H](n2cc(-c3cc(F)c(F)c(F)c3)nn2)[C@@H](O)[C@@H](CO)O[C@H]1S[C@H](c1nocc1C)C1(O)CCS(=O)(=O)CC1` [Example 2.66.120R.I., 4-Hydroxy-4-((R)-(((2S,3R,4S,5R,6R)-5-hydroxy-6-(hydroxymethyl)-3-methoxy-4-(4-(3,4,5-trifluorophenyl)-1H-1,2,3-triazol-1-yl)tetrahydro-2H-pyran-2-yl)thio)(4-methylisoxazol-3-yl)methyl)tetrahydro-2H-thiopyran 1,1-dioxide], the pIC50 at human Gal-1 (hGal-1) is 6.24; at human Gal-3 (hGal-3) (setting [3]), 7.15.
